{"source": "patent US20240042051A1", "about": "“MCL-1 INHIBITOR ANTIBODY-DRUG CONJUGATES AND METHODS OF USE” (Novartis AG, priority 2020, published 2024)", "key": {"KMS-21-BM": {"test_system": "KMS-21-BM", "assay": "CellTiter-Glo proliferation assay (Example 7)", "format": "cell-based", "conditions": "5 days", "description": "(§1) The CD48 MCL-1 antibody drug conjugates were tested against three endogenous cancer cell lines: NCI-H929 (ATCC No. CRL-9068 cultured in RPMI-1640+10% FBS+0.05 mM 2-mercaptoethanol), KMS-21 BM (JCRB No. JCRB1185 cultured in RPMI-1640+10% FBS) and KMS-27 (JCRB No. JCRB1188 cultured in RPMI-1640+10% FBS).\n(§2) The ability of the MCL-1 antibody drug conjugates to inhibit cell proliferation and survival was assessed using the Promega CellTiter-Glo® proliferation assay. ADCs were generated generally as described in Example 6. Cell lines were cultured in media that is optimal for their growth at 5% CO2, 37° C. in a tissue culture incubator. Prior to seeding for the proliferation assay, the cells were split at least 2 days before the assay to ensure optimal growth density. On the day of seeding, cell viability and cell density were determined using a cell counter (Vi-Cell XR Cell Viability Analyzer, Beckman Coulter). Cells with higher than 85% viability were seeded in white clear bottom 384-well TC treated plates (Corning cat. #3765). Cells were seeded at a density of 1,000 cells per well in 45 μL of standard growth media. Plates were incubated at 5% CO2, 37° C. overnight in a tissue culture incubator. The next day, free MCL-1 payload (P1), targeting MCL-1 ADCs, and non-targeting isotype (IgG) ADCs were prepared at 10× in standard growth media. The prepared MCL-1 payload (P1) treatment was then added to the cells resulting in final concentrations of 0.005-100 nM and a final volume of 50 uL per well. The prepared CD48 targeting and isotype matched non-targeting control ADC treatments were added to the cells resulting in final concentrations of 0.015-300 nM and a final volume of 50 uL per well. Each drug concentration was tested in quadruplets. Plates were incubated at 5% CO2, 37° C. for 5 days in a tissue culture incubator, after which cell viability was assessed through the addition of 25 μL of CellTiter Glo® (Promega, cat #G7573), a reagent which lyses cells and measures total adenosine triphosphate (ATP) content. Plates were incubated at room temperature for 10 minutes to stabilize luminescent signals prior to reading using a luminescence reader (EnVision Multilabel Plate Reader, PerkinElmer). To evaluate the effect of the drug treatments, luminescent counts from wells containing untreated cells (100% viability) were used to normalize treated samples. A variable slope model was applied to fit a nonlinear regression curve to the data in GraphPad PRISM version 7.02 software. IC50 and Amax values were extrapolated from the resultant curves."}, "KMS-27": {"test_system": "KMS-27", "assay": "CellTiter-Glo proliferation assay (Example 7)", "format": "cell-based", "conditions": "5 days", "description": "as §1, §2"}, "NCI-H929": {"test_system": "NCI-H929", "assay": "CellTiter-Glo proliferation assay (Example 7)", "format": "cell-based", "conditions": "5 days", "description": "as §1, §2"}, "[1]": {"test_system": "NCI-H929, KMS-21 BM and KMS-27 cancer cell lines", "assay": "CellTiter-Glo proliferation assay (Example 7), summary over cell lines", "format": "cell-based", "conditions": "read-out: IC50 values, range over representative cancer cell lines", "description": "as §1\nThe ability of the MCL-1 antibody drug conjugates to inhibit cell proliferation and survival was assessed using the Promega CellTiter-Glo® proliferation assay. ADCs were generated generally as described in Example 6. Cell lines were cultured in media that is optimal for their growth at 5% CO2, 37° C. in a tissue culture incubator. Prior to seeding for the proliferation assay, the cells were split at least 2 days before the assay to ensure optimal growth density. On the day of seeding, cell viability and cell density were determined using a cell counter (Vi-Cell XR Cell Viability Analyzer, Beckman Coulter). […] Plates were incubated at 5% CO2, 37° C. for 5 days in a tissue culture incubator, after which cell viability was assessed through the addition of 25 μL of CellTiter Glo® (Promega, cat #G7573), a reagent which lyses cells and measures total adenosine triphosphate (ATP) content. Plates were incubated at room temperature for 10 minutes to stabilize luminescent signals prior to reading using a luminescence reader (EnVision Multilabel Plate Reader, PerkinElmer). […]"}, "KMS27 xenografts": {"test_system": "KMS27 xenografts", "assay": "KMS27 multiple myeloma xenograft, tumor growth inhibition and delay", "format": "in vivo, NSG mice", "conditions": "50 mg/kg QD3, PO, single agent", "description": "The in vivo therapeutic effect of two CD48-targeting MCL-1 ADCs formulated in Phosphate-Buffered Saline (PBS) was determined in KMS27 multiple myeloma model after intravenous (IV) administration.\nKMS27 cells, obtained from JCRB, were cultured in RPMI supplemented with 10% FBS. Cells were resuspended in 50% matrigel (BD Biosciences) and 0.1 ml containing 10×10^6 cells were subcutaneously inoculated into the right flank of female NSG mice, provided by Jax. When tumors reached the appropriate volume, mice were randomized, 6 animals per group, using Easy stat software. Anti-CD48 NY920_CysmAb Fc silent, anti-CD48 NY938_CysmAb Fc silent, anti-CD48 NY920_CysmAb Fc silent_L42-P1 and anti-CD48 NY938_CysmAb Fc silent_L42-P1 (2.5 and/or 5 mg/kg) were injected once IV in PBS in combination with ABT-199 (50 mg/kg, PO for 3 consecutive days=QD3 in PEG/ethanol/phosal). Mice body weight was monitored three times a week and tumor size measured using electronic calipers. Tumor volume was estimated by measuring the minimum and maximum tumor diameters using the formula: (minimum diameter)^2 (maximum diameter)/2. […]\nWith DTV (Delta Tumor Volume) at Dx, calculated being TV at Dx-TV at Randomization. Tumor Growth Delay (TGD) was calculated as the number of days required for the median tumor volume in each group to reach back the starting tumor volume (at randomization). […]"}, "KMS-21-BM xenografts": {"test_system": "KMS-21-BM xenografts", "assay": "KMS-21-BM multiple myeloma xenograft, tumor growth inhibition and delay", "format": "in vivo, NSG mice", "conditions": "0.5 mg/kg QD, single agent", "description": "The in vivo therapeutic effect of a CD48-targeting MCL-1 ADC formulated in Phosphate-Buffered Saline (PBS) was determined in KMS-21-BM multiple myeloma model after intravenous (IV) administration.\nKMS-21-BM cells, obtained from JCRB, were cultured in RPMI supplemented with 10% FBS. Cells were resuspended in 100% matrigel (BD Biosciences) and 0.1 ml containing 10×10^6 cells were subcutaneously inoculated into the right flank of female NSG mice, provided by Jax. When tumors reached the appropriate volume, mice were randomized, 6 animals per group, using Easy stat software. IgG1-Linker-Payload Fc WT, anti-CD48 NY920_CysmAb Fc WT, anti-CD48 NY920_CysmAb Fc WT_L42-P1 (10 and/or 30 mg/kg) and Bortezomib (0.5 mg/kg) were injected, alone or in combination, once IV in PBS and NaCl 0.9%, respectively. Mice body weight was monitored three times a week and tumor size measured using electronic calipers. Tumor volume was estimated by measuring the minimum and maximum tumor diameters using the formula: (minimum diameter)^2 (maximum diameter)/2. Tumor growth inhibition on day 21 was calculated using the formula: […]\nWith DTV (Delta Tumor Volume) at Dx, calculated being TV at Dx−TV at Randomization. Tumor Growth Delay (TGD) was calculated as the number of days required for the median tumor volume in each group to reach 500 mm^3. […]"}}, "data": [{"smiles": "COc1ccccc1-c1nccc(COc2ccccc2C[C@@H](Oc2ncnc3sc(-c4ccc(F)cc4)c(-c4ccc(OCCN5CCN(C)CC5)c(Cl)c4C)c23)C(=O)O)n1", "note": "[P1, (2R)-2-[5-[3-chloro-2-methyl-4-[2-(4-methylpiperazin-1-yl)ethoxy]phenyl]-6-(4-fluorophenyl)thieno[2,3-d]pyrimidin-4-yl]oxy-3-[2-[[2-(2-methoxyphenyl)pyrimidin-4-yl]methoxy]phenyl]propanoic acid]", "values": [{"measurement": "IC50", "setting": "KMS-21-BM; 120 h", "result": 1.16, "unit": "nM"}, {"measurement": "Amax (Span)", "setting": "KMS-21-BM", "result": 100.9}, {"measurement": "IC50", "setting": "KMS-27; 120 h", "result": 11.2, "unit": "nM"}, {"measurement": "Amax (Span)", "setting": "KMS-27", "result": 99}, {"measurement": "Amax (Span)", "setting": "NCI-H929", "result": 110.3}, {"measurement": "IC50", "setting": "NCI-H929; Homo sapiens, 120 h", "result": 4.73, "unit": "nM"}, {"measurement": "IC50", "setting": "[1]", "result": "1.16 to 11.2", "unit": "nM"}]}, {"smiles": "CC1(C)CCC(CN2CCN(c3ccc(C(=O)NS(=O)(=O)c4ccc(NCC5CCOCC5)c([N+](=O)[O-])c4)c(Oc4cnc5[nH]ccc5c4)c3)CC2)=C(c2ccc(Cl)cc2)C1", "note": "[ABT-199, venetoclax]", "values": [{"measurement": "% TGI (d4)", "setting": "KMS27 xenografts", "result": 120.82, "unit": "%"}, {"measurement": "TGD", "setting": "KMS27 xenografts; to reach back starting tumor volume", "result": 6.27, "unit": "days"}]}, {"smiles": "CC(C)C[C@H](NC(=O)[C@H](Cc1ccccc1)NC(=O)c1cnccn1)B(O)O", "note": "[Bortezomib]", "values": [{"measurement": "% TGI (d21)", "setting": "KMS-21-BM xenografts; IV (once)", "result": 88.09, "unit": "%"}, {"measurement": "TGD", "setting": "KMS-21-BM xenografts; IV, median tumor volume to reach 500 mm^3", "result": 42.53, "unit": "days"}]}]}
